Entries after “also recorded” stand apart in the source; their conditions may differ.
Experiments:
[1] = system: activated caspase-3 in DRG cultures; assay: Caspase-3 activation (apoptosis) in DRG cultures treated with vincristine; assay type: cell-based, mouse; conditions: 10 nM vincristine for 5 days
Procedure: (§1) IL-6R/IL-6 chimera (Chebath et al, 1997) was used to explore prevention against vincristine intoxication in vitro. For this purpose, cultures of dorsal root ganglia (DRG) from mouse embryos (day E17) in which neuronal outgrowth was stimulated by Nerve Growth Factor (NGF), were subsequently exposed to 10 nM vincristine which induces a progressive axonal degeneration process (Wang et al., J Neuropathol Exp Neurol. 2000 July; 59(7):599-606). […] Neurodegeneration was further examined by monitoring the proteolytic activation of caspase-3, which denotes the early stages of apoptosis in various neuropathies (Russell et al, Neurobiol Dis. 1999 October; 6(5):347-63).
(§2) DRGs were prepared as detailed before (Haggiag et al, 1999, 2001) from embryos of (C57BL/6×129Sv) F1 mice. In some experiments, corresponding IL-6−/− mutant mice were used (Mendel et al, 1998). The DRGs were seeded onto glass coverslips (precoated with a solution of 20 μg/ml poly-D-lysine, 250 μg/ml fibronectin), which were placed in 12-well Costar plates. The regular culture medium was 0.5 ml DMEM/F12 medium with 1% N2 supplement, 10% fetal bovine serum, 2% horse serum, 1.4 mM glutamine (all from Gibco/Invitrogen) and 50 ng/ml NGF (2.5S; Alomone Labs, Jerusalem, Israel). Cultures were maintained at 37° C., 5% CO2 and medium replaced every third day. […]

[2] = system: dorsal root ganglia (DRG) cultures; assay: Protection of the axonal network in DRG cultures intoxicated by vincristine (βIII-tubulin immunostaining); assay type: cell-based, mouse; conditions: 10 nM vincristine for 2 days; βIII-tubulin staining
Procedure: as §1, §2

[3] = system: dorsal root ganglia (DRG) cultures; assay: Regeneration of DRG cultures after vincristine removal (βIII-tubulin and GFAP immunostaining); assay type: cell-based, mouse; conditions: 5 nM vincristine day 5 to 10, 6 more days without drug; IL-6-/- DRG
From the text: I further investigated whether the IL-6R/IL-6 could have neural regenerative effects by adding IL-6R/IL-6 after the action of vincristine had taken place. Cultures in which the axonal network was formed in the presence of NGF for 5 days were either continued for another 11 days without or with IL-6R/IL-6 (Panel A and B, respectively), or treated for 5 days by vincristine at which time vincristine was removed and culture continued for 6 more days (panels C-F). […] These experiments indicate that IL-6R/IL-6 chimera promotes regeneration of neural and glial cells when added after exposure to the chemotherapeutic agent.
as §2

[4] = system: peripheral neuropathy caused by carboplatin/paclitaxel; conditions: at the doses and regime tested; cited from earlier work

| Compound | Caspase-3 activation caused by vincristine [1] | Loss of axons in DRG outgrowth caused by vincristine [2] | Degeneration of the axonal network 6 days after vincristine removal [3] | Prevention of CIPN in clinical trials [4] |
| --- | --- | --- | --- | --- |
| CC[C@]1(O)C[C@H]2CN(CCc3c([nH]c4ccccc34)[C@@](C(=O)OC)(c3cc4c(cc3OC)N(C=O)[C@H]3[C@@](O)(C(=O)OC)[C@H](OC(C)=O)[C@]5(CC)C=CCN6CC[C@]43[C@@H]65)C2)C1 [vincristine] | Positive reaction to antibodies against activated caspase-3 | considerable loss of axons; also recorded: extensive neurodegeneration | extensive degeneration of the axonal network was still observed; also recorded: extensive degeneration of the axonal network was still present | – |
| LIF: recombinant leukemia inhibitor factor (LIF), another gp130 activator | – | – | – | ineffective |

Source: patent US8394367B2, “IL6R/IL6 chimera for therapy of chemotherapy-induced peripheral neuropathy” (Yeda Research and Development Co., Ltd., priority 2004, dated 2013)
